Tested on: antibody 38C2
Experiment: antibody 38C2-catalyzed deuterium exchange (deuteration) of ketones and aldehydes in D2O, kinetics by GCMS or 1H-NMR
Assay type: biochemical
Details: for Km / kcat: 38C2-catalyzed deuteration, D2O, pD 7.4, 25° C.; for Km: Lineweaver-Burk analysis (GCMS); for kcat: per exchange of one hydrogen atom; for kcat/kun: rate enhancement over uncatalyzed background reaction (followed 5 months at 25° C.)
Method: Series of reactions were carried out in a 0.1 ml solution containing the appropriate concentration of the carbonyl substrate and antibody 38C2(1.33 μM in the case of cycloheptanone and heptanal, 2.67 μM in the case of 2-heptanone) which was previously dialyzed three times against 0.1 M NaCl in D2O. The reaction mixtures were kept at 25° C. for 10 minutes and then quenched with dichloromethane. The organic layer was separated and analyzed by GCMS (Chemical Ionization) where the different isotopic masses were monitored and integrated. All kinetic parameters are calculated per exchange of one deuterium atom. No background reactions could be detected under these conditions.
The issue of kinetic analyses of these catalytic reactions and structure determination of the deuterium labeled products is not trivial. The common chromatographic methods, such as HPLC, used to monitor protein-catalyzed organic reactions that are carried out at very low concentrations, are not applicable to isotope exchange reactions. Work at low concentrations, at the range of the antibody's Km, is required in order to establish the kinetic parameters of the antibody catalyzed reaction. Consequently, alternative methods such as mass spectrometry and NMR are required. For NMR spectroscopy, deuterated substrates were used and the exchange of ^2H and ^1H was followed by ^1H-NMR. This allows for monitoring the reaction in real time in the presence of antibody and buffer solution. The experiments were carried out in relatively high substrate concentrations, due to the limited sensitivity of the instrument. Most experiments employed deuterated acetonitrile as an internal standard that enables one to quantify the results. It will be appreciated that the employment of NMR techniques is valuable not only for kinetic studies but also for determining the product's stereochemistry as well as the regio, chemo- and enantioselectivity of the reaction.
All reactions were carried out in D2O under neutral conditions (pD 7.4) in the presence of catalytic amounts of the commercially available 38C2 antibody.
The exchange reaction was followed either by mass spectrometry (GCMS.) or by ^1H-NMR. The high sensitivity of the GCMS method with respect to substrate concentration allowed for determination of the kinetic parameters of these reactions (Km and kcat) using Lineweaver-Burk analysis. These measurements are presented in Table 1 hereinunder and FIG. 5.
Although all NMR measurements were carried out under substrate saturation conditions (allowing only for determination of Vmax and kcat, Table 1, above), as further detailed hereinunder, this method provided useful information about the regioselectivity of the reaction in the cases of non-symmetrical ketones and chemoselectivity with polyfunctional carbonyl compounds.
14. The rate of the uncatalyzed reaction was determined by averaging the results of five experiments for each substrate. All reaction mixtures, containing the appropriate substrate (200 μM) and NaCl (0.1 M) in D2O (0.1 mL), were monitored by GCMS-CI. Approximately 1-2% yield was observed after 5 months at 25° C.

Km [mM]	SMILES	kcat [s⁻¹]	other results
0.68	CCCCCCCCCC=O [Decanal, 6, Decanal]	0.0667	
	CC(=O)CC(C)=O [acetylacetone, reference compound]		inhibition of the 38C2-catalyzed deuterium exchange reaction (all cases studied by GCMS): effectively inhibited
	CCCCC=O [Valeraldehyde, 4, Valeraldehyde]	0.0567	
	CC(C)=O [Acetone, 1, Acetone]	0.0433	
	O=C1CCCC1 [Cyclopentanone, 8, Cyclopentanone]	0.102	
4.6	O=C1CCCCCC1 [Cycloheptanone, 10, Cycloheptanone]	0.232	kcat/kun: 1.1 × 10^8
16	CCCCCC(C)=O [2-Heptanone, 3, 2-Heptanone]	0.0583	kcat/kun: 6.94 × 10^7
	CCC(C)=O [Butanone, 2, Butanone]	0.0517	
	CCOC(=O)CCCC(C)=O [Ethyl 5-oxohexanoate, 7, Ethyl 5-oxohexanoate]	0.013	
	CC(=O)C(C)(C)C [3,3-dimethylbutan-2-one]		reactivity in the 38C2-catalyzed deuterium exchange reaction (data not shown): absolute inertness
3.5	CCCCCCC=O [Heptanal, 5, Heptanal]	0.753	

SMILES	Km [mM]	kcat [s⁻¹]	other results
O=C1CCCCC1 [Cyclohexanone, 9, Cyclohexanone]	5.2	3.233	kcat/kun: 5.9 × 10^8

Reference: patent US6440710B1, “Antibody-catalyzed deuteration, tritiation, dedeuteration or detritiation of carbonyl compounds” (The Scripps Research Institute, priority 1998, dated 2002)
